Like-named read-outs stand apart in the source and are kept apart here.

One data set relates to A2780 cells. Kind of data set: MTT antiproliferative assay, A2780. The data set is classed as cell-based, human. The following applies: for IC50: read-out: calculated IC50; for inhibition at 10 µM / inhibition at 30 µM: read-out: Inhibition (%) ± SEM. Here is the method: (§1) The antiproliferative properties of the newly synthesised triazoles (11a,b–15a,b) were determined on a panel of human adherent cancer cell lines of gynaecological origin. MCF-7 and MDA-MB-231 were isolated from breast cancers differing in biochemical background, while A2780 cells were isolated from ovarian cancer. The cancer selectivity of compound 12a was tested on the non-cancerous mouse embryo fibroblast cell line NIH/3T3. All cell lines were purchased from European Collection of Cell Cultures (ECCAC, Salisbury, UK). Cells were cultivated in minimal essential medium supplemented with 10% foetal bovine serum, 1% non-essential amino acids and an antibiotic–antimycotic mixture. All media and supplements were obtained from Lonza Group Ltd., Basel, Switzerland. Near-confluent cancer cells were seeded onto a 96-well microplate (5000 cells/well) and, after overnight standing, 200 µL new medium, containing the tested compounds at 10 and 30 µM, was added. After incubation for 72 h at 37 °C in humidified air containing 5% CO2, the living cells were assayed by the addition of 20 µL of 5 mg/ml 3-(4,5-dimethylthiazol-2-yl)-2,5-diphenyltetrazolium bromide (MTT) solution. MTT was converted by intact mitochondrial reductase and precipitated as purple crystals during a 4-h contact period. The medium was next removed and the precipitated formazan crystals were dissolved in 100 µL of DMSO during a 60-min period of shaking at 37 ^оC.
(§2) Finally, the reduced MTT was assayed at 545 nm, using a microplate reader utilising wells with untreated cells serving as control. […] All in vitro experiments were carried out on two microplates with at least five parallel wells. Stock solutions of the tested substances (10 mM) were prepared in DMSO. […] Cisplatin (Ebewe Pharma GmbH, Unterach, Austria) was used as positive control.

The test system of another data set is MDA-MB-231 cells. Kind of data set: MTT antiproliferative assay, MDA-MB-231. The data set is classed as cell-based, human. As to conditions: for IC50: read-out: calculated IC50; for inhibition at 10 µM / inhibition at 30 µM: read-out: Inhibition (%) ± SEM. On the procedure: as §1, §2
In a further data set the test system is MCF-7 cells. The experiment in a line: MTT antiproliferative assay, MCF-7. In kind it is cell-based, human. The following applies: for IC50: read-out: calculated IC50; for inhibition at 10 µM / inhibition at 30 µM: read-out: Inhibition (%) ± SEM. On the procedure:
as §1, §2

The mark [1] stands for this setting: Homo sapiens, A2780, 10 µM, 72 h, MTT.
Setting [2] is: Homo sapiens, A2780, 30 µM, 72 h, MTT.
[3] abbreviates: Homo sapiens, MDA-MB-231, 10 µM, 72 h, MTT.
The mark [4] stands for this setting: Homo sapiens, MDA-MB-231, 30 µM, 72 h, MTT.
The mark [5] stands for this setting: Homo sapiens, MCF7, MCF-7, 10 µM, 72 h, MTT.
The mark [6] stands for this setting: Homo sapiens, MCF7, MCF-7, 30 µM, 72 h, MTT.

In the case of `N.N.[Cl][Pt][Cl]` [Cisplatin, reference compound], the “Inhibition (%) ± SEM” value with A2780 cells (A2780, 10 µM, 72 h, MTT) was found to be 83.57 ± 1.21%; in the data set with A2780 cells (A2780, 30 µM, 72 h, MTT), 95.02 ± 0.28%; with MDA-MB-231 cells (MDA-MB-231, 10 µM, 72 h, MTT), 67.51 ± 1.01%; with MDA-MB-231 cells (MDA-MB-231, 30 µM, 72 h, MTT), 87.75 ± 1.10%; with MCF-7 cells (MCF-7, 10 µM, 72 h, MTT), 53.03 ± 2.29%; with MCF-7 cells (MCF-7, 30 µM, 72 h, MTT) it was 86.90 ± 1.24%. The IC50 in the data set with A2780 cells (A2780, 72 h, MTT) was 1.3 µM; with MDA-MB-231 cells (MDA-MB-231, 72 h, MTT), 3.7 µM; in the data set with MCF-7 cells (MCF-7, 72 h, MTT) it was 5.78 µM.
Consider `C[C@@]12CC[C@@H]3c4cc(Br)c(OCc5cn(Cc6ccccc6)nn5)cc4CC[C@H]3[C@@H]1CCC2=O` [Compound 11a, 3-[{1-benzyl-1H-1,2,3-triazol-4-yl}methoxy]-2-bromo-13α-estra-1,3,5(10)-trien-17-one], for which the inhibition at 10 µM with A2780 cells (setting [1]) was 44.87 ± 0.09%; in the data set on MDA-MB-231 cells (setting [3]), 47.5 ± 1.21%; in the data set with MCF-7 cells (setting [5]), 29.1 ± 1.42%. The values for the inhibition at 30 µM with A2780 cells (setting [2]), in the data set on MDA-MB-231 cells (setting [4]) and with MCF-7 cells (setting [6]) were 52 ± 0.8%, 38.2 ± 2.78% and 36.5 ± 1.22%, respectively. In addition, in the data set on A2780 cells (Homo sapiens, A2780, 72 h, MTT), the 50% inhibitory concentration (IC50) was 21.5 µM.
Regarding `CC(C)(C)c1ccc(Cn2cc(COc3cc4c(cc3Br)[C@H]3CC[C@@]5(C)C(=O)CC[C@H]5[C@@H]3CC4)nn2)cc1` [Compound 11b, 2-bromo-3-[{1–(4-tert-butylbenzyl)-1H-1,2,3-triazol-4-yl}methoxy]-13α-estra-1,3,5(10)-trien-17-one], the inhibition at 10 µM in the data set with A2780 cells (setting [1]) is 30.2 ± 2.35%; with MDA-MB-231 cells (setting [3]), 24.4 ± 2.2%; in the data set with MCF-7 cells (setting [5]), < 20%. Moreover, the figures for the inhibition at 30 µM in the data set on A2780 cells (setting [2]), in the data set on MDA-MB-231 cells (setting [4]) and with MCF-7 cells (setting [6]) were 33.9 ± 2.7%, 23.9 ± 1.07% and < 20%, respectively.
Regarding `CC(C)(C)c1ccc(Cn2cc(COc3ccc4c(c3Br)CC[C@@H]3[C@@H]4CC[C@@]4(C)C(=O)CC[C@@H]34)nn2)cc1` [Compound 12b, 4-bromo-3-[{1–(4-tert-butylbenzyl)-1H-1,2,3-triazol-4-yl}methoxy]-13α-estra-1,3,5(10)-trien-17-one], the inhibition at 10 µM in the data set with A2780 cells (setting [1]) was 46.9 ± 1.75%; in the data set on MDA-MB-231 cells (setting [3]), < 20%; with MCF-7 cells (setting [5]), 23.5 ± 1.03%. In addition, the results for the inhibition at 30 µM in the data set on A2780 cells (setting [2]), with MDA-MB-231 cells (setting [4]) and in the data set on MCF-7 cells (setting [6]) were 54.7 ± 0.7%, < 20% and 29.2 ± 2.94%, respectively. In addition, the IC50 in the data set with A2780 cells (Homo sapiens, A2780, 72 h, MTT) is 18.3 µM.
For `CCOP(=O)(OCC)c1cc2c(cc1OCc1cn(Cc3ccccc3)nn1)CC[C@@H]1[C@@H]2CC[C@@]2(C)C(=O)CC[C@@H]12` [Compound 13a, (3-[{1-benzyl-1H-1,2,3-triazol-4-yl}methoxy]-13α-estra-1,3,5(10)-trien-17-on-2-yl)-diethylphosphonate], the melting point lay within 75 to 80 °C. In the data set with A2780 cells (Homo sapiens, A2780, 72 h), the inhibition at 10 µM amounted to 29.5 ± 1.86%, the inhibition at 30 µM was 90.85 ± 0.4% and the IC50 is 13.5 µM. For the same compound, in the data set with MDA-MB-231 cells (Homo sapiens, MDA-MB-231, 72 h), the inhibition at 10 µM was < 20% and the inhibition at 30 µM amounted to 36 ± 3.17%. Further, in the data set on MCF-7 cells (Homo sapiens, MCF7, 72 h), the inhibition at 10 µM is < 20% and the inhibition at 30 µM was 43.5 ± 2.63%.
As for `CCOP(=O)(OCC)c1cc2c(cc1OCc1cn(Cc3ccc(C(C)(C)C)cc3)nn1)CC[C@@H]1[C@@H]2CC[C@@]2(C)C(=O)CC[C@@H]12` [Compound 13b, (3-[{1–(4-tert-butylbenzyl)-1H-1,2,3-triazol-4-yl}methoxy]-13α-estra-1,3,5(10)-trien-17-on-2-yl)-diethylphosphonate], in the data set on A2780 cells (Homo sapiens, A2780, 72 h), the inhibition at 10 µM was 95.61 ± 0.59%, the inhibition at 30 µM worked out at 99.73 ± 0.21% and the IC50 was 2.95 µM. Moreover, in the data set with MDA-MB-231 cells (Homo sapiens, MDA-MB-231, 72 h), the inhibition at 10 µM is 57 ± 2.58%, the inhibition at 30 µM came to 98.93 ± 0.2% and the half-inhibitory concentration (IC50) is 9.51 µM. Further, in the data set on MCF-7 cells (Homo sapiens, MCF7, 72 h), the inhibition at 10 µM was determined as 74 ± 1.88%, the inhibition at 30 µM worked out at 95.52 ± 0.23% and the IC50 is 6.59 µM.
Turning to `C[C@@]12CC[C@@H]3c4cc(P(=O)(c5ccccc5)c5ccccc5)c(OCc5cn(Cc6ccccc6)nn5)cc4CC[C@H]3[C@@H]1CCC2=O` [Compound 14a, (3-[{1-benzyl-1H-1,2,3-triazol-4-yl}methoxy]-13α-estra-1,3,5(10)-trien-17-on-2-yl)diphenylphosphine oxide], the melting point lay in the range of 117 to 120 °C. In addition, in the data set on A2780 cells (Homo sapiens, A2780, 72 h), the inhibition at 10 µM came to 96 ± 1.28%, the inhibition at 30 µM worked out at 98.06 ± 0.89% and the concentration for half-maximal inhibition (IC50) was 4.87 µM. Moreover, in the data set on MDA-MB-231 cells (Homo sapiens, MDA-MB-231, 72 h), the inhibition at 10 µM was found to be 82 ± 2.49%, the inhibition at 30 µM is 98.52 ± 0.1% and the IC50 is 7.13 µM. Also, in the data set with MCF-7 cells (Homo sapiens, MCF7, 72 h), the inhibition at 10 µM turned out to be 66.9 ± 1.46%, the inhibition at 30 µM was determined as 92.5 ± 1.08% and the IC50 is 8.38 µM.
Turning to `CC(C)(C)c1ccc(Cn2cc(COc3cc4c(cc3P(=O)(c3ccccc3)c3ccccc3)[C@H]3CC[C@@]5(C)C(=O)CC[C@H]5[C@@H]3CC4)nn2)cc1` [Compound 14b, (3-[{1–(4-tert-butylbenzyl)-1H-1,2,3-triazol-4-yl}methoxy]-13α-estra-1,3,5(10)-trien-17-on-2-yl)diphenylphosphine oxide], the melting point fell in the range of 205 to 208 °C. Also, in the data set with A2780 cells (Homo sapiens, A2780, 72 h), the inhibition at 10 µM was 85.52 ± 0.64%, the inhibition at 30 µM came out at 95.82 ± 0.12% and the half-maximal inhibitory concentration (IC50) was 5.07 µM. Also, in the data set on MDA-MB-231 cells (Homo sapiens, MDA-MB-231, 72 h), the inhibition at 10 µM worked out at 46.6 ± 1.21%, the inhibition at 30 µM turned out to be 71.3 ± 1.23% and the IC50 was 13.6 µM. For the same compound, in the data set with MCF-7 cells (Homo sapiens, MCF7, 72 h), the inhibition at 10 µM stood at 77.87 ± 0.66%, the inhibition at 30 µM was determined as 90.69 ± 0.18% and the IC50 was 7.16 µM.
`CCOP(=O)(OCC)c1c(OCc2cn(Cc3ccccc3)nn2)ccc2c1CC[C@@H]1[C@@H]2CC[C@@]2(C)C(=O)CC[C@@H]12` [Compound 15a, (3-[{1-benzyl-1H-1,2,3-triazol-4-yl}methoxy]-13α-estra-1,3,5(10)-trien-17-on-4-yl)-diethylphosphonate] registered a melting point of 43 to 45 °C. Also, in the data set with A2780 cells (Homo sapiens, A2780, 72 h), the inhibition at 10 µM turned out to be 79.9 ± 1.08%, the inhibition at 30 µM stood at 99.5 ± 0.03% and the IC50 was 5.91 µM. Besides, in the data set on MDA-MB-231 cells (Homo sapiens, MDA-MB-231, 72 h), the inhibition at 10 µM was 25.7 ± 1.76%, the inhibition at 30 µM stood at 96.87 ± 0.28% and the IC50 was 13.2 µM. Moreover, in the data set on MCF-7 cells (Homo sapiens, MCF7, 72 h), the inhibition at 10 µM amounted to 42.4 ± 2.94%, the inhibition at 30 µM is 91 ± 1.49% and the IC50 is 11.4 µM.
In turn, `CCOP(=O)(OCC)c1c(OCc2cn(Cc3ccc(C(C)(C)C)cc3)nn2)ccc2c1CC[C@@H]1[C@@H]2CC[C@@]2(C)C(=O)CC[C@@H]12` [Compound 15b, (3-[{1–(4-tert-butylbenzyl)-1H-1,2,3-triazol-4-yl}methoxy]-13α-estra-1,3,5(10)-trien-17-on-4-yl)-diethylphosphonate] displayed a melting point of 54 to 59 °C. In the data set on A2780 cells (Homo sapiens, A2780, 72 h), the inhibition at 10 µM stood at 46.2 ± 1.27%, the inhibition at 30 µM is 92.05 ± 0.86% and the half-inhibitory concentration (IC50) was 9.96 µM. In the data set with MDA-MB-231 cells (Homo sapiens, MDA-MB-231, 72 h), the inhibition at 10 µM was < 20% and the inhibition at 30 µM turned out to be 34.8 ± 2.2%. Also, in the data set with MCF-7 cells (Homo sapiens, MCF7, 72 h), the inhibition at 10 µM amounted to 30.1 ± 1.53% and the inhibition at 30 µM worked out at 77.5 ± 1.56%.

Broadly, the IC50 is the concentration at which inhibition is half-maximal. By inhibition is commonly meant how much of the control response was suppressed. A word on the melting point: it is the temperature, or range, at which the solid turns liquid.

Source of the values: PMC7598997, “Synthesis and evaluation of anticancer activities of 2- or 4-substituted 3-(N-benzyltriazolylmethyl)-13α-oestrone derivatives” (Journal of Enzyme Inhibition and Medicinal Chemistry, 2020).
